Results reported in patent US20230023559A1, “ARYLMETHYLENE HETEROCYCLIC COMPOUNDS AS KV1.3 POTASSIUM SHAKER CHANNEL BLOCKERS” (D. E. Shaw Research, LLC, priority 2019, published 2023).

Biological target: T1, Kv1.3 potassium channel (Homo sapiens, UniProt P22001)
T1 construct: expressed in transfected cells
Assay: Kv1.3 potassium channel blocker activity, automated whole-cell patch clamp (Patchliner)
Format: cell-based
Settings: CHO-K1 cells stably expressing Kv1.3; whole cell current inhibition; read-out: Kv1.3_IC50
Description: The assay described below is used to evaluate the disclosed compound's activities as Kv1.3 potassium channel blockers.
CHO-K1 cells stably expressing Kv1.3 were grown in DMEM containing 10% heat-inactivated FBS, 1 mM Sodium Pyruvate, 2 mM L-Glutamine and G418 (500 μg/ml).
All compounds were dissolved in DMSO at 30 mM.
The currents were evoked by applying 100 ms depolarizing pulses from −90 mV (holding potential) to +40 mV were applied with 0.1 Hz frequency. […] 10 second breaks were used between pulse trains (see Table A below).
Data were sampled at 10 kHz without filtering. Passive leak currents were subtracted online using a P/4 procedure (HEKA Elektronik Dr. Schulze GmbH). […] Total compound incubation time before the next pulse train was not longer than 10 seconds. Peak current inhibition was observed during compound equilibration.

T1 sequence (P22001 whole entry): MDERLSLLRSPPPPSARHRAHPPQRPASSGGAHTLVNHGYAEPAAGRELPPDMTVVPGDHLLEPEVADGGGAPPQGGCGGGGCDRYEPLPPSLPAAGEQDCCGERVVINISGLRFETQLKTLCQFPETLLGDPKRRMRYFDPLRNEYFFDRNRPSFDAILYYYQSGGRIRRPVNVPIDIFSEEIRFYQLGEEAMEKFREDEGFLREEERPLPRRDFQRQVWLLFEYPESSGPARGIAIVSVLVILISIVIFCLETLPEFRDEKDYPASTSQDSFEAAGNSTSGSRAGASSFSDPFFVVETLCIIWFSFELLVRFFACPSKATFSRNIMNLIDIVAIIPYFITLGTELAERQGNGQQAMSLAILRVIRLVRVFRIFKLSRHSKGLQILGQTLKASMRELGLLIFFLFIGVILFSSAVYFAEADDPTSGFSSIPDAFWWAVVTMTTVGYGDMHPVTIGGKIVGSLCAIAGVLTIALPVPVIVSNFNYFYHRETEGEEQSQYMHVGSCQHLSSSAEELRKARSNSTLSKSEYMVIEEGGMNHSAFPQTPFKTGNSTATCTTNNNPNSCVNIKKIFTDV

Row | Compound | IC50
1 | N[C@H](c1cc(Cl)c(Cl)cc1O)C1CCNCC1 (single isomer, unassigned) [Compound 15, Trifluoroacetic Acid] | < 10 µM
2 | CC(=O)N[C@@H](c1cc(Cl)c(Cl)cc1O)C1CCNCC1 (single isomer, unassigned) [Compound 17] | < 30 µM
3 | CN1CCC([C@@H](O)c2cc(Cl)c(Cl)cc2O)CC1 (single isomer, unassigned) [Compound 24] | < 10 µM
4 | N[C@H](c1cc(Cl)c(Cl)cc1O)C1CCN(C(=O)[C@@H]2CCNC2)CC1 (single isomer, unassigned) [Compound 84] | < 10 µM
5 | C[C@@H](N)C(=O)N1CCC([C@H](N)c2cc(Cl)c(Cl)cc2O)CC1 (single isomer, unassigned) [Compound 87] | < 10 µM
6 | CN1CCC([C@H](O)c2cc(Cl)c(Cl)cc2O)CC1 (single isomer, unassigned) [Compound 319] | < 10 µM
7 | O=C([C@@H]1CCNC1)N1CCC([C@H](O)c2c(O)ccc(Cl)c2Cl)CC1 (single isomer, unassigned) [Compound 321, Trifluoroacetic Acid] | < 10 µM
8 | CN[C@H](c1cc(Cl)c(Cl)cc1O)C1CCN(C(=O)[C@H](O)CO)CC1 (single isomer, unassigned) [Compound 336] | < 10 µM
9 | N[C@@H](c1cc(Cl)c(Cl)cc1O)[C@H]1CCC(=O)NC1 (single isomer, unassigned; diastereoisomer 1) [Compound 38, 5-(amino(4,5-dichloro-2-hydroxyphenyl)methyl)piperidin-2-one trifluoroacetic acid diastereoisomer 1] | < 10 µM
10 | CC1(C)C[C@@H]([C@H](N)c2cc(Cl)c(Cl)cc2O)CCN1 (single isomer, unassigned; diastereoisomer 1) [Compound 72, 2-(amino(2,2-dimethylpiperidin-4-yl)methyl)-4,5-dichlorophenol Trifluoroacetic Acid Diastereoisomer 1] | < 30 µM
11 | CC1(C)C[C@H]([C@H](N)c2cc(Cl)c(Cl)cc2O)CCN1 (single isomer, unassigned; diastereoisomer 2) [Compound 73, 2-(amino(2,2-dimethylpiperidin-4-yl)methyl)-4,5-dichlorophenol Trifluoroacetic Acid Diastereoisomer 2] | < 10 µM
12 | C[C@@](O)(c1cc(Cl)c(Cl)cc1O)C1CCNCC1 (single isomer, unassigned; isomer 1) [Compound 25, 4,5-dichloro-2-(1-hydroxy-1-(piperidin-4-yl)ethyl)phenol isomer 1] | < 10 µM
13 | O=S(=O)([C@H]1CCNC1)N1CCC([C@@H](O)c2cc(Cl)c(Cl)cc2O)CC1 (single isomer, unassigned; isomer 1) [Compound 124, 4,5-dichloro-2-(hydroxy(1-(pyrrolidin-3-ylsulfonyl)piperidin-4-yl)methyl)phenol Isomer 1] | < 0.5 µM
14 | CN1C[C@H](C(=O)N2CCC([C@@H](N)c3cc(Cl)c(Cl)cc3O)CC2)OCC1=O (single isomer, unassigned; isomer 1) [Compound 274] | < 0.5 µM
15 | N[C@H](c1cc(Cl)c(Cl)cc1O)[C@H]1CCN(C(=O)[C@H](O)CO)C1 (single isomer, unassigned; isomer 1) [Compound 308] | < 10 µM
16 | O=C([C@H]1CCNC1)N1CCC[C@@H]([C@H](O)c2c(O)ccc(Cl)c2Cl)CC1 (single isomer, unassigned; isomer 1) [Compound 322] | < 10 µM
17 | N[C@@H](c1cc(Cl)c(Cl)cc1O)[C@@H]1CCCN(C(=O)[C@H](O)CO)CC1 (single isomer, unassigned; isomer 1) [Compound 333] | < 10 µM
18 | C[C@](O)(c1cc(Cl)c(Cl)cc1O)C1CCNCC1 (single isomer, unassigned; isomer 2) [Compound 26, 4,5-dichloro-2-(1-hydroxy-1-(piperidin-4-yl)ethyl)phenol Isomer 2] | < 10 µM
19 | O=S(=O)([C@@H]1CCNC1)N1CCC([C@H](O)c2cc(Cl)c(Cl)cc2O)CC1 (single isomer, unassigned; isomer 2) [Compound 125, 4,5-dichloro-2-(hydroxy(1-(pyrrolidin-3-ylsulfonyl)piperidin-4-yl)methyl)phenol Isomer 2] | < 10 µM
20 | O=C([C@H]1CCNC1)N1CCC[C@H]([C@H](O)c2c(O)ccc(Cl)c2Cl)CC1 (single isomer, unassigned; isomer 2) [Compound 129] | < 10 µM
21 | CN1C[C@@H](C(=O)N2CCC([C@@H](N)c3cc(Cl)c(Cl)cc3O)CC2)OCC1=O (single isomer, unassigned; isomer 2) [Compound 278] | < 10 µM
22 | N[C@@H](c1cc(Cl)c(Cl)cc1O)[C@H]1CCN(C(=O)[C@H](O)CO)C1 (single isomer, unassigned; isomer 2) [Compound 312] | < 10 µM

Row | Compound | IC50
23 | N[C@@H](c1cc(Cl)c(Cl)cc1O)[C@H]1CCCN(C(=O)[C@H](O)CO)CC1 (single isomer, unassigned; isomer 2) [Compound 334] | < 10 µM
24 | O=C([C@H]1CCNC1)N1CCC[C@@H]([C@@H](O)c2c(O)ccc(Cl)c2Cl)CC1 (single isomer, unassigned; isomer 3) [Compound 323] | < 10 µM
25 | O=S(=O)([C@@H]1CCNC1)N1CCC([C@@H](O)c2cc(Cl)c(Cl)cc2O)CC1 (single isomer, unassigned; isomer 4) [Compound 127, 4,5-dichloro-2-(hydroxy(1-(pyrrolidin-3-ylsulfonyl)piperidin-4-yl)methyl)phenol Isomer 4] | < 0.5 µM
26 | O=C([C@H]1CCNC1)N1CCC[C@H]([C@@H](O)c2c(O)ccc(Cl)c2Cl)CC1 (single isomer, unassigned; isomer 4) [Compound 130] | < 10 µM
27 | CC(O)(c1cc(Cl)c(Cl)cc1O)C1CCNCC1 (stereo not shown) [Compound 3, 4,5-dichloro-2-[1-hydroxy-1-(piperidin-4-yl)ethyl]phenol] | < 10 µM
28 | OCC(c1cc(Cl)c(Cl)cc1O)C1CCNCC1 (stereo not shown) [Compound 5, 4,5-dichloro-2-[2-hydroxy-1-(piperidin-4-yl)ethyl]phenol] | < 10 µM
29 | NCC(c1cc(Cl)c(Cl)cc1O)C1CCNCC1 (stereo not shown) [Compound 8, 2-[2-amino-1-(piperidin-4-yl)ethyl]-4,5-dichlorophenol] | < 10 µM
30 | CS(=O)(=O)NC(c1cc(Cl)c(Cl)cc1O)C1CCNCC1 (stereo not shown) [Compound 12, N-((4,5-dichloro-2-hydroxyphenyl)(piperidin-4-yl)methyl)methanesulfonamide] | < 10 µM
31 | Oc1cc(Cl)c(Cl)cc1C(C1CCNCC1)n1cccn1 (stereo not shown) [Compound 13, 4,5-dichloro-2-[piperidin-4-yl(1H-pyrazol-1-yl)methyl]phenol] | < 10 µM
32 | CN1CCC(C(NC(=O)C(F)(F)F)c2cc(Cl)c(Cl)cc2O)CC1 (stereo not shown) [Compound 14, N-[(4,5-dichloro-2-hydroxyphenyl)(1-methylpiperidin-4-yl)methyl]-2,2,2-trifluoroacetamide] | < 10 µM
33 | NC(=O)C(c1cc(Cl)c(Cl)cc1O)C1CCNCC1 (stereo not shown) [Compound 18, 2-(4,5-dichloro-2-hydroxyphenyl)-2-(piperidin-4-yl)acetamide] | < 10 µM
34 | O=C(NC(c1cc(Cl)c(Cl)cc1O)C1CCNCC1)C(F)(F)F (stereo not shown) [Compound 22, N-((4,5-dichloro-2-hydroxyphenyl)(piperidin-4-yl)methyl)-2,2,2-trifluoroacetamide] | < 10 µM
35 | CC(=O)N1CCC(C(c2cc(Cl)c(Cl)cc2O)N2CCCC2)CC1 (stereo not shown) [Compound 23, 1-(4-((4,5-dichloro-2-hydroxyphenyl)(pyrrolidin-1-yl)methyl)piperidin-1-yl)ethanone Trifluoroacetic Acid] | < 10 µM
36 | CC(=O)N1CCC(C(Nc2ccccn2)c2cc(Cl)c(Cl)cc2O)CC1 (stereo not shown) [Compound 27, 1-[4-[(4,5-dichloro-2-hydroxyphenyl)[(pyridin-2-yl)amino]methyl]piperidin-1-yl]ethan-1-one Trifluoroacetic Acid] | < 30 µM
37 | CC(=O)N1CCC(C(CN)c2cc(Cl)c(Cl)cc2O)CC1 (stereo not shown) [Compound 28, 1-[4-[2-amino-1-(4,5-dichloro-2-hydroxyphenyl)ethyl]piperidin-1-yl]ethan-1-one] | < 30 µM
38 | O=C1CCCN1C(c1cc(Cl)c(Cl)cc1O)C1CCNCC1 (stereo not shown) [Compound 29, 1-((4,5-dichloro-2-hydroxyphenyl)(piperidin-4-yl)methyl)pyrrolidin-2-one Trifluoroacetic Acid] | < 10 µM
39 | Cc1ccc(S(=O)(=O)N2CCC(C(N)c3cc(Cl)c(Cl)cc3O)CC2)cc1 (stereo not shown) [Compound 35, 2-(amino(1-tosylpiperidin-4-yl)methyl)-4,5-dichlorophenol] | < 10 µM
40 | CC(N)(c1cc(Cl)c(Cl)cc1O)C1CCNCC1 (stereo not shown) [Compound 40, 2-[1-amino-1-(piperidin-4-yl)ethyl]-4,5-dichlorophenol] | < 30 µM
41 | NC(c1cc(Cl)c(Cl)cc1O)C1CCN(Cc2ccccc2)CC1 (stereo not shown) [Compound 41, 2-(amino(1-benzylpiperidin-4-yl)methyl)-4,5-dichlorophenol Trifluoroacetic Acid] | < 10 µM
42 | CN(C)C(=O)CN1CCC(C(N)c2cc(Cl)c(Cl)cc2O)CC1 (stereo not shown) [Compound 55, 2-[4-[amino(4,5-dichloro-2-hydroxyphenyl)methyl]piperidin-1-yl]-N,N-dimethylacetamide] | < 10 µM
43 | NC(c1cc(Cl)c(Cl)cc1O)C1CCN(C(=O)NC2CC2)CC1 (stereo not shown) [Compound 57, 4-(amino(4,5-dichloro-2-hydroxyphenyl)methyl)-N-cyclopropylpiperidine-1-carboxamide] | < 10 µM
